The results in this text go back to patent US9000025B2, “Autotaxin inhibitors and uses thereof” (Amira Pharmaceuticals, Inc., priority 2010, dated 2015).

SMILES strings stand for the structures. Where only a bound is given, the exact number is not on record here.

For the assay, the target named is T1, autotaxin (ATX) (Homo sapiens, UniProt Q13822).
T1 construct: conditioned medium from the human melanoma cell line, MDA-MB-4355, which endogenously expresses autotaxin; host or cells: MDA-MB-435S human melanoma cells; serum-free conditioned medium, concentrated 20-fold
The assay is described as follows: Native Autotaxin Choline Release Assay. The class given is biochemical. Conditions: autotaxin in conditioned medium from human melanoma cell line; choline released from LPC; read-out: MDA-MB-435S Assay IC50. The procedure: ATX activity is determined by measuring the amount of choline realeased from the substrate, lyosphophatidylcholine (LPC). […] After reaching confluency, the cells are washed twice with phosphate-buffered saline (PBS) then cultured for 48 hours in phenol-red free, serum-free DMEM containing sodium pyruvate. […] 100 μl of a color mix which contains 4.5 mM 4-aminoantipyrine, 2.7 mM N-ethyl-N-(2-hydroxy-3-sulfopropyl)-m-toluidine, 21 units/ml horseradish peroxidase and 3 units/ml choline oxidase in 50 mM Tris, pH 8, 4.5 mM MgCl2 is added and the incubation continued at 37° C. for 10 minutes before reading the absorbance at 555 nm. The concentration of released choline in the sample is determined from a choline standard curve and is equal to the concentration of LPA produced.
Regarding `CCn1cc(-n2c(C)c(Sc3cccc(C4(C(=O)O)CC4)c3)c3ccc(Cl)cc32)cn1` [Compound 1-74, 1-{3-[6-Chloro-1-(1-ethyl-1H-pyrazol-4-yl)-2-methyl-1H-indol-3-ylsulfanyl]-phenyl}-cyclopropanecarboxylic acid], the IC50 is < 300 nM. For `CCn1cc(-n2c(C)c(Sc3cccc(C(=O)O)c3)c3ccc(S(C)(=O)=O)cc32)cn1` [Compound 1-75, 3-[1-(1-Ethyl-1H-pyrazol-4-yl)-6-methanesulfonyl-2-methyl-1H-indol-3-ylsulfanyl]-benzoic acid], the IC50 was > 1000 nM.

In the case of `CCn1cc(-n2c(C)c(Sc3ccc(F)c(C(=O)O)c3)c3ccc(Cl)cc32)cn1` [Compound 1-76, 5-[6-chloro-1-(1-ethyl-1H-pyrazol-4-yl)-2-methyl-1H-indol-3-ylsulfanyl]-2-fluoro-benzoic acid], the IC50 was < 300 nM. To `CCn1cc(-n2c(C)c(Sc3cc(F)cc(C(=O)O)c3)c3ccc(Cl)cc32)cn1` [Compound 1-129, 3-[6-Chloro-1-(1-ethyl-1H-pyrazol-4-yl)-2-methyl-1H-indol-3-ylsulfanyl]-5-fluoro-benzoic acid] belongs < 300 nM; to `Cc1ccc(-n2cc(-n3c(C)c(Sc4cccc(C(=O)O)c4)c4ccc(Cl)cc43)cn2)cc1` [Compound 1-130, 3-[6-Chloro-2-methyl-1-(1-p-tolyl-1H-pyrazol-4-yl)-1H-indol-3-ylsulfanyl]-benzoic acid], < 300 nM; to `CCCn1cc(-n2c(C)c(Sc3cccc(C(=O)O)c3F)c3ccc(Cl)cc32)cn1` [Compound 1-131, 3-[6-Chloro-2-methyl-1-(1-propyl-1H-pyrazol-4-yl)-1H-indol-3-ylsulfanyl]-2-fluoro-benzoic acid], < 300 nM. To `CCn1cc(-n2c(C)c(Sc3ccc(C)c(C(=O)O)c3)c3ccc(Cl)cc32)cn1` [Compound 1-132, 5-[6-Chloro-1-(1-ethyl-1H-pyrazol-4-yl)-2-methyl-1H-indol-3-ylsulfanyl]-2-methyl-benzoic acid] belongs < 300 nM. As for `Cc1[nH]c2cc(Cl)ccc2c1Sc1cccc(B(O)O)c1` [Compound 2-1, 3-(6-Chloro-2-methyl-1H-indol-3-ylsulfanyl)-phenylboronic acid], the 50% inhibitory concentration (IC50) was > 1000 nM.

Regarding `COC(=O)c1cccc(Oc2c(C)n(Cc3ccccc3)c3cc(Cl)ccc23)c1` [Compound 2-3, 3-(1-Benzyl-6-chloro-2-methyl-1H-indol-3-yloxy)-benzoic acid methyl ester], the concentration for half-maximal inhibition (IC50) is > 1000 nM. As to `Cc1c(Oc2cccc(CO)c2)c2ccc(Cl)cc2n1Cc1ccccc1` [Compound 2-4, [3-(1-Benzyl-6-chloro-2-methyl-1H-indol-3-yloxy)-phenyl]-methanol], the IC50 is > 1000 nM.

For `Cc1c(Oc2cccc(CC#N)c2)c2ccc(Cl)cc2n1Cc1ccccc1` [Compound 2-5, [3-(1-Benzyl-6-chloro-2-methyl-1H-indol-3-yloxy)-phenyl]-acetonitrile], the 50% inhibitory concentration (IC50) is > 1000 nM. To `Cc1c(Oc2cccc(Cc3nn[nH]n3)c2)c2ccc(Cl)cc2n1Cc1ccccc1` [Compound 2-6, 1-Benzyl-6-chloro-2-methyl-3-[3-(2H-tetrazol-5-ylmethyl)-phenoxy]-1H-indole] belongs > 1000 nM; to `Cc1c(Sc2cccc(/C=C/C(=O)O)c2)c2ccc(Cl)cc2n1Cc1ccccc1` [Compound 2-7, (E)-3-[3-(1-Benzyl-6-chloro-2-methyl-1H-indol-3-ylsulfanyl)-phenyl]-acrylic acid], > 1000 nM; to `Cc1c(Sc2cccc(Cc3nn[nH]n3)c2)c2ccc(Cl)cc2n1Cc1ccccc1` [Compound 2-8, 1-Benzyl-6-chloro-2-methyl-3-[3-(2H-tetrazol-5-ylmethyl)-phenylsulfanyl]-1H-indole], > 1000 nM.

As for `Cc1c(Sc2cccc(-c3nn[nH]n3)c2)c2ccc(Cl)cc2n1Cc1ccccc1` [Compound 2-9, 1-Benzyl-6-chloro-2-methyl-3-[3-(2H-tetrazol-5-yl)-phenylsulfanyl]-1H-indole], the IC50 is > 1000 nM. To `Cc1c(Sc2cccc(C(=O)NCC[N+](C)(C)C)c2)c2ccc(Br)cc2n1Cc1ccccc1` [Compound 2-10, {2-[3-(1-Benzyl-6-bromo-2-methyl-1H-indol-3-ylsulfanyl)-benzoylamino]-ethyl}-trimethyl-ammonium] belongs > 1000 nM; to `Cc1c(Sc2cccc(C(=O)NCCN(C)C)c2)c2ccc(Br)cc2n1Cc1ccccc1` [Compound 2-11, 3-(1-Benzyl-6-bromo-2-methyl-1H-indol-3-ylsulfanyl)-N-(2-dimethylamino-ethyl)-benzamide], > 1000 nM; to `Cc1c(Sc2cccc(B(O)O)c2)c2ccc(Cl)cc2n1-c1cccnc1` [Compound 2-12, 3-(6-Chloro-2-methyl-1-pyridin-3-yl-1H-indol-3-ylsulfanyl)-phenylboronic acid], > 1000 nM. To `Cc1[nH]c2cc(Cl)ccc2c1Sc1ccccc1CC(=O)O` [Compound 3-1, [2-(6-Chloro-2-methyl-1H-indol-3-ylsulfanyl)-phenyl]-acetic acid] belongs > 1000 nM; to `Cc1[nH]c2cc(Cl)ccc2c1Sc1ccc(CC(=O)O)cc1` [Compound 3-2, [4-(6-Chloro-2-methyl-1H-indol-3-ylsulfanyl)-phenyl]-acetic acid], > 1000 nM; to `Cc1[nH]c2ccc(Cl)cc2c1Sc1cccc(CC(=O)O)c1` [Compound 3-3, [3-(5-Chloro-2-methyl-1H-indol-3-ylsulfanyl)-phenyl]-acetic acid], > 1000 nM. To `Cc1[nH]c2c(Cl)cccc2c1Sc1cccc(CC(=O)O)c1` [Compound 3-4, [3-(7-Chloro-2-methyl-1H-indol-3-ylsulfanyl)-phenyl]-acetic acid] belongs > 1000 nM. For `Cc1[nH]c2cccc(F)c2c1Sc1cccc(CC(=O)O)c1` [Compound 3-5, [3-(4-Fluoro-2-methyl-1H-indol-3-ylsulfanyl)-phenyl]-acetic acid], the IC50 is > 1000 nM.

Take `COc1cccc2[nH]c(C)c(Sc3cccc(CC(=O)O)c3)c12` [Compound 3-6, [3-(4-Methoxy-2-methyl-1H-indol-3-ylsulfanyl)-phenyl]-acetic acid]: the IC50 is > 1000 nM.

As for `O=C(O)c1cccc(Sc2c(C(F)(F)F)[nH]c3cc(Cl)ccc23)c1` [Compound 3-7, 3-(6-Chloro-2-trifluoromethyl-1H-indol-3-ylsulfanyl)-benzoic acid], the half-maximal inhibitory concentration (IC50) is > 1000 nM. To `Cc1[nH]c2cccc(Cl)c2c1Sc1cccc(B(O)O)c1` [Compound 3-9, 3-(4-Chloro-2-methyl-1H-indol-3-ylsulfanyl)-phenylboronic acid] belongs > 1000 nM. Turning to `Cc1c(Sc2ccccc2CC(=O)O)c2ccc(Cl)cc2n1C` [Compound 3-10, [2-(6-Chloro-1,2-dimethyl-1H-indol-3-ylsulfanyl)-phenyl]-acetic acid], the IC50 was > 1000 nM.

Regarding `Cc1c(Sc2ccc(CC(=O)O)cc2)c2ccc(Cl)cc2n1C` [Compound 3-11, [4-(6-Chloro-1,2-dimethyl-1H-indol-3-ylsulfanyl)-phenyl]-acetic acid], the IC50 was > 1000 nM.

Take `Cc1c(Sc2cccc(CC(=O)O)c2)c2cc(Cl)ccc2n1C` [Compound 3-12, [3-(5-Chloro-1,2-dimethyl-1H-indol-3-ylsulfanyl)-phenyl]-acetic acid]: the IC50 is > 1000 nM.
